pEC50, pIC50: −log10 of the molar value.
How the values were obtained:
HCT-116 = assay: Cytotoxicity against human HCT116 cells after 72 hrs; assay type: functional, cell-based; settings: HCT-116, 72 h
A549 = assay: Cytotoxicity against human A549 cells after 72 hrs; assay type: functional, cell-based; settings: A549, 72 h
[1] = target: T1, Eukaryotic elongation factor 2 kinase (Homo sapiens, UniProt O00418); assay: Inhibition of GST tagged eEf2K expressed in Escherichia coli by fluorometric method
T1 sequence (O00418 whole entry): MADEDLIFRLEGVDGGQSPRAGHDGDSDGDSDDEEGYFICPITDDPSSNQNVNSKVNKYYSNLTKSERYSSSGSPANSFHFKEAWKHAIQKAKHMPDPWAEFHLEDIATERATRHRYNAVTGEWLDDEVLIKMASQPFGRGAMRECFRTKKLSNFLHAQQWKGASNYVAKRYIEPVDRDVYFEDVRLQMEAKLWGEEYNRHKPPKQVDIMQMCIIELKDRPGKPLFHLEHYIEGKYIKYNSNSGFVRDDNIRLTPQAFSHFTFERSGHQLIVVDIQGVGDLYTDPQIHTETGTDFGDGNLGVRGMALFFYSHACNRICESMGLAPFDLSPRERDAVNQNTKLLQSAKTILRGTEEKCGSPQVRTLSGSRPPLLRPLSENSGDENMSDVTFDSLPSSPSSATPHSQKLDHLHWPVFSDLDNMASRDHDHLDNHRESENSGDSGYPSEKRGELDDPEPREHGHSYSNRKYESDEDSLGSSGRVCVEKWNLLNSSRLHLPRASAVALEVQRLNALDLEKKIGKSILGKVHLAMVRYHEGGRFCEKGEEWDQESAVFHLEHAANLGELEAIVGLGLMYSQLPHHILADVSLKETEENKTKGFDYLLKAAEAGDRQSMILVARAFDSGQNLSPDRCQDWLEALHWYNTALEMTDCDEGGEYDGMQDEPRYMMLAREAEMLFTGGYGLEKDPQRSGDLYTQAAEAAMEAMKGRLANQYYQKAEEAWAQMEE

pIC50 [1]	SMILES	pEC50 (HCT-116)	pEC50 (A549)
5.60	NC(=O)c1sc2nc3c(cc2c1N)CCCCCC3	4.42	4.42
6.07	CC(C)Cc1c2c(nc3sc(C(N)=O)c(N)c13)CCCCCC2	–	–
5.70	NC(=O)c1sc2nc3c(c(C4CC4)c2c1N)CCCCCC3	–	–
6.52	NC(=O)c1sc2nc3c(c(-c4ccc(C(F)(F)F)o4)c2c1N)CCCCCC3	–	–
< 5.00	NC(=O)c1sc2nc(CC3CCCCC3)cc(-c3ccco3)c2c1N	–	–
5.96	NC(=O)c1sc2nc3c(c(-c4ccoc4)c2c1N)CCCCCC3	–	–
< 4.70	COC(=O)c1oc(-c2c3c(nc4sc(C(N)=O)c(N)c24)CCCCCC3)cc1C	–	–
5.33	Nc1ncnc2c1sc1nc3c(c(-c4ccco4)c12)CCCCC3	< 4.00	4.77
< 5.00	COc1ccc(-c2cc(-c3ccco3)c3c(N)c(C(N)=O)sc3n2)c(OC)c1	–	–
< 4.70	NC(=O)c1sc2nc3c(c(-c4ccccc4)c2c1N)CCCCCC3	–	–
5.85	NC(=O)c1sc2nc3c(c(-c4nccs4)c2c1N)CCCCCC3	–	–
< 4.70	Cc1cccnc1-c1c2c(nc3sc(C(N)=O)c(N)c13)CCCCCC2	–	–
< 4.70	NC(=O)c1sc2nc3c(c(CCc4ccccc4)c2c1N)CCCCCC3	–	–
5.89	COc1ccc(F)c(-c2c3c(nc4sc(C(N)=O)c(N)c24)CCCCCC3)c1	–	–
6.48	NC(=O)c1sc2nc3c(c(-c4cc5ccccc5o4)c2c1N)CCCCCC3	–	–
6.18	CCc1ccc(-c2c3c(nc4sc(C(N)=O)c(N)c24)CCCCCC3)o1	–	–
6.66	Nc1ncnc2c1sc1nc(N3CCOCC3)c3c(c12)CCCC3	4.54	5.17
5.43	Nc1ncnc2c1sc1nc3c(cc12)CCCCCCC3	–	–

pIC50 [1]	SMILES	pEC50 (HCT-116)	pEC50 (A549)
6.46	Nc1ncnc2c1sc1nc3c(c(-c4ccco4)c12)CCCCCCC3	–	–
6.10	NC(=O)c1sc2nc3c(c(-c4ccc(CO)o4)c2c1N)CCCCCC3	–	–
5.96	Cc1cc(-c2c3c(nc4sc(C(N)=O)c(N)c24)CCCCCC3)oc1C	–	–
5.96	Cc1c2c(nc3sc(C(N)=O)c(N)c13)CCCCCC2	–	–
6.49	NC(=O)c1sc2nc3c(c(/C=C/c4ccco4)c2c1N)CCCCCC3	4.72	4.82
6.34	Cc1ccsc1-c1c2c(nc3sc(C(N)=O)c(N)c13)CCCCCC2	–	–
5.92	Cc1cccc(-c2c3c(nc4sc(C(N)=O)c(N)c24)CCCCCC3)c1	–	–
6.00	Cn1cccc1-c1c2c(nc3sc(C(N)=O)c(N)c13)CCCCCC2	–	–
< 5.00	COc1ccc(Cc2cc(-c3ccco3)c3c(N)c(C(N)=O)sc3n2)c(OC)c1	–	–
–	NC(=O)c1sc2nc3c(c(-c4ccco4)c2c1N)CCCCCCC3	4.77	–
6.00	NC(=O)c1sc2nc3c(c(-c4ccc(Cl)c(Cl)c4)c2c1N)CCCCCC3	–	–
< 4.70	NC(=O)c1sc2nc3c(c(-c4ccco4)c2c1N)CCCCCCCC3	–	–
5.96	NC(=O)c1sc2nc3c(c(-c4ccc(Cl)cc4)c2c1N)CCCCCC3	–	–
5.96	NC(=O)c1sc2nc3c(c(-c4ccco4)c2c1N)CCCCC3	–	–
6.55	NC(=O)c1sc2nc3c(c(-c4ccc(Cl)o4)c2c1N)CCCCCC3	4.00	4.19
6.19	NC(=O)c1sc2nc3c(c(-c4ccco4)c2c1N)CCCCCC3	–	–
< 4.70	CC1CCCc2c1nc1sc(C(N)=O)c(N)c1c2-c1ccco1 (racemic)	–	–
5.00	CC(C)=CCCC(C)c1c2c(nc3sc(C(N)=O)c(N)c13)CCCCCC2 (racemic)	–	–
